Data reported in PubChem BioAssay AID1963983 (Molecular Pharmacology Branch, DTP, NCI, 2024).
Values belong to the compound of their own block, whether it stands above or below them.

System: 186277-243-T-J2-PDC multi-cell spheroid viability
Experiment: Anticancer human tumor 186277-243-T-J2-PDC patient-derived colon adenocarcinoma cell line growth inhibition [PI3K]
Details: for IC50: curve of first compound; for viability, T/C: stronger effect = lower value
Method in brief: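 Targeted small molecules plus PI3K inhibitors, half-log dose series from Cmax (default top 10 microM), were applied to heterotypic spheroids of cancer cells with HUVEC and MSCs. Viability indicated growth inhibition.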

[1] = second compound 0.00316 µM, first compound 0.0316 µM
[2] = second compound 0.00316 µM, first compound 0.1 µM
[3] = second compound 0.00316 µM, first compound 0.316 µM
[4] = second compound 0.00316 µM, first compound 1 µM
[5] = second compound 0.00316 µM, first compound 3.16 µM
[6] = second compound 0.00316 µM, first compound 10 µM
[7] = second compound 0.01 µM, first compound 0.0316 µM
[8] = second compound 0.01 µM, first compound 0.1 µM
[9] = second compound 0.01 µM, first compound 0.316 µM
[10] = second compound 0.01 µM, first compound 1 µM
[11] = second compound 0.01 µM, first compound 3.16 µM
[12] = second compound 0.01 µM, first compound 10 µM
[13] = second compound 0.0316 µM, first compound 0.0316 µM
[14] = second compound 0.0316 µM, first compound 0.1 µM
[15] = second compound 0.0316 µM, first compound 0.316 µM
[16] = second compound 0.0316 µM, first compound 1 µM
[17] = second compound 0.0316 µM, first compound 3.16 µM
[18] = second compound 0.0316 µM, first compound 10 µM
[19] = second compound 0.1 µM, first compound 0.0316 µM
[20] = second compound 0.1 µM, first compound 0.1 µM
[21] = second compound 0.1 µM, first compound 0.316 µM
[22] = second compound 0.1 µM, first compound 1 µM
[23] = second compound 0.1 µM, first compound 3.16 µM
[24] = second compound 0.1 µM, first compound 10 µM
[25] = second compound 0.316 µM, first compound 0.0316 µM
[26] = second compound 0.316 µM, first compound 0.1 µM
[27] = second compound 0.316 µM, first compound 0.316 µM
[28] = second compound 0.316 µM, first compound 1 µM
[29] = second compound 0.316 µM, first compound 3.16 µM
[30] = second compound 0.316 µM, first compound 10 µM
[31] = second compound 1 µM, first compound 0.0316 µM
[32] = second compound 1 µM, first compound 0.1 µM
[33] = second compound 1 µM, first compound 0.316 µM
[34] = second compound 1 µM, first compound 1 µM
[35] = second compound 1 µM, first compound 3.16 µM
[36] = second compound 1 µM, first compound 10 µM
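Further: spheroids exposed to compounds for seven days before viability reading.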
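Wherever viability, T/C is given: 100% = DMSO vehicle control viability.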

IC50 (second compound 0.00316 µM): 0.224 µM | IC50 (second compound 0.01 µM): 0.225 µM | IC50 (second compound 0.0316 µM): 0.0468 µM | IC50 (second compound 0.1 µM): < 0.0316 µM | IC50 (second compound 0.316 µM): < 0.0316 µM | IC50 (second compound 1 µM): < 0.0316 µM
Compound: Cn1ncc(Cl)c1-c1cc(C(=O)NC(CN)Cc2cccc(F)c2)sc1Cl (stereo not given) + COc1c(OCCCN2CCOCC2)ccc2c3n(c(=NC(=O)c4cnc(N)nc4)nc12)CCN3
viability, T/C [1]: 93% | viability, T/C [2]: 63.4% | viability, T/C [3]: 42.9% | viability, T/C [4]: 30.4% | viability, T/C [5]: 20.4% | viability, T/C [6]: 9.36% | viability, T/C [7]: 86.4% | viability, T/C [8]: 71.8% | viability, T/C [9]: 38.2% | viability, T/C [10]: 23.1% | viability, T/C [11]: 14.4% | viability, T/C [12]: 4.57% | viability, T/C [13]: 58.3% | viability, T/C [14]: 33.6% | viability, T/C [15]: 23.5% | viability, T/C [16]: 13.7% | viability, T/C [17]: 10.4% | viability, T/C [18]: 2.08% | viability, T/C [19]: 21.1% | viability, T/C [20]: 13.3% | viability, T/C [21]: 8.18% | viability, T/C [22]: 6.79% | viability, T/C [23]: 6.13% | viability, T/C [24]: 1.39% | viability, T/C [25]: 4.19% | viability, T/C [26]: 4.53% | viability, T/C [27]: 2.93% | viability, T/C [28]: 5.08% | viability, T/C [29]: 3.95% | viability, T/C [30]: 0.44% | viability, T/C [31]: 2.43% | viability, T/C [32]: 1.6% | viability, T/C [33]: 2.02% | viability, T/C [34]: 1.95% | viability, T/C [35]: 1.4% | viability, T/C [36]: 0.21%

IC50 (second compound 0.00316 µM): 1.08 µM | IC50 (second compound 0.01 µM): 0.502 µM | IC50 (second compound 0.0316 µM): < 0.0316 µM | IC50 (second compound 0.1 µM): < 0.0316 µM | IC50 (second compound 0.316 µM): < 0.0316 µM | IC50 (second compound 1 µM): < 0.0316 µM
Compound: Cn1nccc1Nc1nccc(-c2ccn(C(CO)c3ccc(Cl)c(F)c3)c(=O)c2)n1 (stereo not given) + COc1c(OCCCN2CCOCC2)ccc2c3n(c(=NC(=O)c4cnc(N)nc4)nc12)CCN3
viability, T/C [1]: 109% | viability, T/C [2]: 107% | viability, T/C [3]: 89.2% | viability, T/C [4]: 51.6% | viability, T/C [5]: 24.3% | viability, T/C [6]: 15.1% | viability, T/C [7]: 86.3% | viability, T/C [8]: 94.6% | viability, T/C [9]: 57.7% | viability, T/C [10]: 32.6% | viability, T/C [11]: 14.7% | viability, T/C [12]: 5.46% | viability, T/C [13]: 47.2% | viability, T/C [14]: 34.6% | viability, T/C [15]: 18.4% | viability, T/C [16]: 10.2% | viability, T/C [17]: 6.79% | viability, T/C [18]: 8.22% | viability, T/C [19]: 9.72% | viability, T/C [20]: 8.17% | viability, T/C [21]: 6.57% | viability, T/C [22]: 2.91% | viability, T/C [23]: 2.2% | viability, T/C [24]: 1.76% | viability, T/C [25]: 3.78% | viability, T/C [26]: 6.01% | viability, T/C [27]: 1.78% | viability, T/C [28]: 1.08% | viability, T/C [29]: 1.43% | viability, T/C [30]: 0.17% | viability, T/C [31]: 2.33% | viability, T/C [32]: 2.25% | viability, T/C [33]: 0.33% | viability, T/C [34]: 0.28% | viability, T/C [35]: 0.15% | viability, T/C [36]: 0.27%

Continued, compound first:

Compound: C=CC(=O)N1CCN(c2nc(=O)n(-c3c(C)ccnc3C(C)C)c3nc(-c4c(O)cccc4F)c(F)cc23)C(C)C1 (stereo not given) + COc1c(OCCCN2CCOCC2)ccc2c3n(c(=NC(=O)c4cnc(N)nc4)nc12)CCN3
IC50 (second compound 0.00316 µM): > 10 µM | IC50 (second compound 0.01 µM): > 10 µM | IC50 (second compound 0.0316 µM): 1.87 µM | IC50 (second compound 0.1 µM): < 0.0316 µM | IC50 (second compound 0.316 µM): < 0.0316 µM | IC50 (second compound 1 µM): < 0.0316 µM | viability, T/C [1]: 102% | viability, T/C [2]: 88.7% | viability, T/C [3]: 88.1% | viability, T/C [4]: 88.1% | viability, T/C [5]: 93.2% | viability, T/C [6]: 73% | viability, T/C [7]: 93.1% | viability, T/C [8]: 88.2% | viability, T/C [9]: 94.4% | viability, T/C [10]: 93.6% | viability, T/C [11]: 87.8% | viability, T/C [12]: 62.3% | viability, T/C [13]: 59.7% | viability, T/C [14]: 67.1% | viability, T/C [15]: 57.5% | viability, T/C [16]: 52.6% | viability, T/C [17]: 47.8% | viability, T/C [18]: 31.2% | viability, T/C [19]: 18.3% | viability, T/C [20]: 18.1% | viability, T/C [21]: 14.9% | viability, T/C [22]: 12.3% | viability, T/C [23]: 11.1% | viability, T/C [24]: 10.9% | viability, T/C [25]: 6.24% | viability, T/C [26]: 4.28% | viability, T/C [27]: 3.7% | viability, T/C [28]: 4.23% | viability, T/C [29]: 7.04% | viability, T/C [30]: 4.1% | viability, T/C [31]: 1.93% | viability, T/C [32]: 4.05% | viability, T/C [33]: 1.66% | viability, T/C [34]: 2.03% | viability, T/C [35]: 2.92% | viability, T/C [36]: 2.49%

Compound: CC(C)NCC(C(=O)N1CCN(c2ncnc3c2C(C)CC3O)CC1)c1ccc(Cl)cc1 (stereo not given) + COc1c(OCCCN2CCOCC2)ccc2c3n(c(=NC(=O)c4cnc(N)nc4)nc12)CCN3
IC50 (second compound 0.00316 µM): 0.919 µM | IC50 (second compound 0.01 µM): 0.551 µM | IC50 (second compound 0.0316 µM): 0.178 µM | IC50 (second compound 0.1 µM): < 0.0316 µM | IC50 (second compound 0.316 µM): < 0.0316 µM | IC50 (second compound 1 µM): < 0.0316 µM | viability, T/C [1]: 93.9% | viability, T/C [2]: 86.5% | viability, T/C [3]: 73.1% | viability, T/C [4]: 46.9% | viability, T/C [5]: 30.9% | viability, T/C [6]: 20.5% | viability, T/C [7]: 102% | viability, T/C [8]: 93.2% | viability, T/C [9]: 68.8% | viability, T/C [10]: 29.2% | viability, T/C [11]: 20.6% | viability, T/C [12]: 12.2% | viability, T/C [13]: 69.4% | viability, T/C [14]: 62.7% | viability, T/C [15]: 37.1% | viability, T/C [16]: 23.2% | viability, T/C [17]: 15.2% | viability, T/C [18]: 10.8% | viability, T/C [19]: 21.8% | viability, T/C [20]: 16.4% | viability, T/C [21]: 11% | viability, T/C [22]: 7.77% | viability, T/C [23]: 7.84% | viability, T/C [24]: 5.5% | viability, T/C [25]: 5.04% | viability, T/C [26]: 3.98% | viability, T/C [27]: 5.15% | viability, T/C [28]: 10.1% | viability, T/C [29]: 6.04% | viability, T/C [30]: 8.76% | viability, T/C [31]: 1.65% | viability, T/C [32]: 3.37% | viability, T/C [33]: 1.85% | viability, T/C [34]: 2.98% | viability, T/C [35]: 2.47% | viability, T/C [36]: 2.26%

Compound: CCN1CCN(Cc2ccc(Nc3ncc(F)c(-c4cc(F)c5nc(C)n(C(C)C)c5c4)n3)nc2)CC1 + COc1c(OCCCN2CCOCC2)ccc2c3n(c(=NC(=O)c4cnc(N)nc4)nc12)CCN3
IC50 (second compound 0.00316 µM): > 1 µM | IC50 (second compound 0.01 µM): > 1 µM | IC50 (second compound 0.0316 µM): 0.234 µM | IC50 (second compound 0.1 µM): < 0.00316 µM | IC50 (second compound 0.316 µM): < 0.00316 µM | IC50 (second compound 1 µM): < 0.00316 µM | viability, T/C (second compound 0.00316 µM, first compound 0.00316 µM): 95.3% | viability, T/C (second compound 0.00316 µM, first compound 0.01 µM): 111% | viability, T/C [1]: 94.3% | viability, T/C [2]: 134% | viability, T/C [3]: 151% | viability, T/C [4]: 108% | viability, T/C (second compound 0.01 µM, first compound 0.00316 µM): 101% | viability, T/C (second compound 0.01 µM, first compound 0.01 µM): 107% | viability, T/C [7]: 113% | viability, T/C [8]: 112% | viability, T/C [9]: 123% | viability, T/C [10]: 69.4% | viability, T/C (second compound 0.0316 µM, first compound 0.00316 µM): 68.4% | viability, T/C (second compound 0.0316 µM, first compound 0.01 µM): 59.7% | viability, T/C [13]: 57.8% | viability, T/C [14]: 52.4% | viability, T/C [15]: 54.8% | viability, T/C [16]: 33.2% | viability, T/C (second compound 0.1 µM, first compound 0.00316 µM): 19.9% | viability, T/C (second compound 0.1 µM, first compound 0.01 µM): 17.7% | viability, T/C [19]: 16% | viability, T/C [20]: 13% | viability, T/C [21]: 14.5% | viability, T/C [22]: 12.8% | viability, T/C (second compound 0.316 µM, first compound 0.00316 µM): 6.67% | viability, T/C (second compound 0.316 µM, first compound 0.01 µM): 7.13% | viability, T/C [25]: 4.73% | viability, T/C [26]: 3.28% | viability, T/C [27]: 6.05% | viability, T/C [28]: 7.03% | viability, T/C (second compound 1 µM, first compound 0.00316 µM): 2.68% | viability, T/C (second compound 1 µM, first compound 0.01 µM): 3% | viability, T/C [31]: 2.82% | viability, T/C [32]: 2.7% | viability, T/C [33]: 7% | viability, T/C [34]: 4.26%
